Values of other authors in patent publication US8163058B2 (Whitehurst Associates, Inc., priority 2009, dated 2012).

Details: prior art description

CCCCNP(N)(N)=S [NBPT, N-(n-butyl) thiophosphoric triamide]
Hydrolytic stability: undergoes hydrolysis
Thermal stability: thermally unstable
